Results taken from US6054441A, “Oxypurine nucleosides and their congeners, and acyl derivatives thereof, for improvement of hematopoiesis” (priority 1995, dated 2000).

What was measured:
Type in all cases: in vivo, Balb/C mice
irradiated mice = assay: Survival of irradiated mice (Example 39); details: for mice surviving 30 days after irradiation over number irradiated: 50 mg/kg i.p., 6 days after irradiation
Description: Thirty female Balb/C mice weighing 20 grams each were irradiated with Cobalt 60 gamma radiation at a dose rate of 7.3 Rads per minute. The total dose was either 700, 725, or 750 Rads. Twenty-four hours later and each day thereafter for a total of 6 days, these mice received an i.p. injection of either physiological saline (controls) or 50 mg/kg of palmitoylguanosine. The number of animals surviving in each group was observed over a 30 day period.

[1] = test system: hematopoietic recovery after cyclophosphamide; assay: Comparative dose-response, hematopoietic recovery after cyclophosphamide (Example 53)
Description: Cyclophosphamide (CP) (275 mg/kg, i.p.) was administered to 96 Balb/C female mice weighing approximately 20 grams each. Twenty-four hours later and each day thereafter mice were given a 0.4 ml i.p. injection of either physiological saline (controls), palmitoylguanosine at one of four different doses: 0.2, 0.4, 1.0 or 2.0 μmoles/mouse), or palmitoyldeoxyguanosine at a dose of 1.0 μmoles/mouse. On days 5 and 7 following CP administration 8 animals from each of the 6 groups were bled and then sacrificed by cervical dislocation. Spleens were removed and weighed, and complete blood cell counts performed.

[2] = test system: hematopoietic recovery after cyclophosphamide; assay: Hematopoietic recovery after cyclophosphamide, acyl chain length (Example 38); details: day 7
Description: Cyclophosphamide (CP) (275 mg/kg, i.p.) was administered to 70 Balb/C female mice weighing approximately 20 grams each. Twenty-four hours later and each day thereafter for a total of 6 days, mice were given a 0.4 ml i.p injection of either physiological saline (controls), Tween 80 (0.2%), guanosine (5 μmoles/mouse/day in 0.2% Tween 80), or 2.5 μmoles per mouse per day of one of the following acylated derivatives of guanosine in 0.2% Tween 80: triacetylguanosine, octanoylguanosine, lauroylguanosine, or palmitoylguanosine. On day 7 following CP administration all 10 animals from each of the 7 groups were bled, and then sacrificed by cervical dislocation. Spleens were removed and weighed, and complete blood counts performed.

[3] = test system: hematopoiesis in normal mice; assay: Hematopoiesis in normal mice (Example 56); details: day 5; 2.6 μmoles/mouse, 4 days
In short: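 Normal female Balb/C mice (~20 g; 3 per group) received daily i.p. saline or acylated guanosine derivatives (2.6 μmoles/mouse) for 4 days. On day 5, animals were bled and sacrificed. Spleen weights, complete blood counts and femoral marrow differential counts were recorded.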

[4] = day 5, palmitoylguanosine 2.0, palmitoyldeoxyguanosine 1.0 μmoles/mouse
[5] = day 7, palmitoylguanosine 1.0 and 2.0, palmitoyldeoxyguanosine 1.0 μmoles/mouse

In the case of CCCCCCCCCCCCCCCC(=O)OC[C@H]1O[C@@H](n2cnc3c(=O)[nH]c(N)nc32)[C@H](O)[C@@H]1O, the mice surviving (irradiated mice; 2 higher radiation doses, 30 days) is reported as “all of the mice treated with palmitoylguanosine survived”, the “mice surviving 30 days after irradiation over number irradiated” value (irradiated mice; 725 R) is reported as 5/5 and the “mice surviving 30 days after irradiation over number irradiated” value (irradiated mice; 750 R) is reported as 5/5. For the same compound, the survival (irradiated mice; pretreatment prior to irradiation) was “improved survival”, the total neutrophil counts ([1]; day 5, palmitoylguanosine 1.0 μmoles/mouse) was “significantly increased” and the spleen weight [1, 4] was “significantly elevated”. The total neutrophil counts [1, 4] was “significantly elevated”, the “white blood cell counts” value [1, 4] was “significantly elevated” and the spleen weight [1, 5] was “significantly elevated”. For the same compound, the total neutrophil counts [1, 5] was “significantly elevated”, the “white blood cell counts” value [1, 5] was “significantly elevated” and the “white blood cell (WBC) counts” value [2] was “greatest effect on total WBC counts”. The spleen weight ([2]; guanosine 5, acyl derivatives 2.5 μmoles/mouse/day i.p.) was “significantly larger spleens” and the spleen weight [3] was “significantly elevated”.
